Assay results from patent publication US12172983B2, “EGFR inhibitors” (Blueprint Medicines Corporation, priority 2019, dated 2024).

Legend:
EGFR (L858R T790M C797S) = molecular target: T1, EGFR (L858R T790M C797S) (Homo sapiens, UniProt P00533, C797S/L858R/T790M); test: Biochemical EGFR inhibition assay (Caliper mobility shift), EGFR LRTMCS mutant; details: inhibitory activity against EGFR LRTMCS mutant; apparent IC50; read-out: Ext Enz LRTMCS
T1 construct: purchased SignalChem E10-122VG
In short: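 Kinase reactions proceed at 25° C. to 10%–20% conversion of total peptide, are terminated with 35 mM EDTA, and the phosphopeptide is resolved from substrate by electrophoretic mobility shift. Apparent IC50 values come from plotting percent activity against log compound concentration.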

[1] = tested on: phosphorylation of EGFR (Tyr1068) in NCI-H1975 cell line that harbors the EGFR L858R T790M mutations; test: NCI-H1975 pEGFR AlphaLISA assay; type: cell-based; details: Homo sapiens, NCI-H1975, inhibition of phosphorylation of mutant EGFR in NCI-H1975 cells; 4-5 hours incubation; read-out: Ext pEGFR H1975
In short: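 Phospho-EGFR Tyr1068 AlphaLISA readout: lysates taken from compound-treated H1975 cells (L858R T790M EGFR) after a 4-5 h exposure at 37 °C. Cells had adhered overnight beforehand. IC50 derived by plotting % pEGFR inhibition against log compound concentration.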

T1 sequence (P00533 25-1210 T790M/C797S/L858R): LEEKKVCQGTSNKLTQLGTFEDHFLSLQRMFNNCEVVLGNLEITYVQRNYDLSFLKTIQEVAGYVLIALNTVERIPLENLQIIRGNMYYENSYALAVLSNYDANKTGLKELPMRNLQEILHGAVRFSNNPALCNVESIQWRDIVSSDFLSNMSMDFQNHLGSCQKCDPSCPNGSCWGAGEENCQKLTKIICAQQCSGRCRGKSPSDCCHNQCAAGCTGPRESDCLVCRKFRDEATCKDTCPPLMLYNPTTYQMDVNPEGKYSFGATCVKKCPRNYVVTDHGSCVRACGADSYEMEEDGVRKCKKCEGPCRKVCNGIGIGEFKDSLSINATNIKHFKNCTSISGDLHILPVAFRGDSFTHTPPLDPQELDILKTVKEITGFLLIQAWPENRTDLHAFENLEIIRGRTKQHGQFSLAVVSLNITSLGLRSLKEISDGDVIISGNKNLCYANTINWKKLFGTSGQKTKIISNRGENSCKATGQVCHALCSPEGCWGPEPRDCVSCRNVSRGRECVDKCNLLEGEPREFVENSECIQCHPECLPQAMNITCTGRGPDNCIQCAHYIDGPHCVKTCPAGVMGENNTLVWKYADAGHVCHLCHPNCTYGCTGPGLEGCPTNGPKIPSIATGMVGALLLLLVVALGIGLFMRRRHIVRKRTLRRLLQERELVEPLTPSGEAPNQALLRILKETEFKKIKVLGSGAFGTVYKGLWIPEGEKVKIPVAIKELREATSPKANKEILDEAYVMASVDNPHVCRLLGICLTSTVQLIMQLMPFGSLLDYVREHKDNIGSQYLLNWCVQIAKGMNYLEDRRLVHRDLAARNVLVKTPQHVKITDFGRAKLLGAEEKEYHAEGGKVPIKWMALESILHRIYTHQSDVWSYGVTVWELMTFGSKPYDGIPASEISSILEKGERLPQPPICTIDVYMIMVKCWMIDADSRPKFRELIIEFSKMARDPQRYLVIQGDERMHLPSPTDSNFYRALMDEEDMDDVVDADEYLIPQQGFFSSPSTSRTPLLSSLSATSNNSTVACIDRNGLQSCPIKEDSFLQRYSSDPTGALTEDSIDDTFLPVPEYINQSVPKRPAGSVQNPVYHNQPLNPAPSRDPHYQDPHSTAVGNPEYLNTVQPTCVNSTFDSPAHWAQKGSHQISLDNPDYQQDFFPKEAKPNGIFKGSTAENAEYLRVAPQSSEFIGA

Row | Compound | IC50 (EGFR (L858R T790M C797S)) [nM] | IC50 [1] [nM]
1 | CC(C)c1ccc(N2CC(CS(C)(=O)=O)C2)c2cnc(Nc3ccnc(N4CCC5(CC4)COCCO5)n3)cc12 [Compound 167, N-(2-{1,4-dioxa-9-azaspiro[5,5]undecan-9-yl}pyrimidin-4-yl)-8-[3-(methanesulfonylmethyl)azetidin-1-yl]-5-(propan-2-yl)isoquinolin-3-amine] | ≤ 15 | 10.1 to 20
2 | COC1(CN)CCN(c2nccc(Nc3cc4c(C(C)C)ccc(N5C[C@H](CS(C)(=O)=O)[C@H]5C)c4cn3)n2)CC1 [Compound 169, N-{2-[4-(aminomethyl)-4-methoxypiperidin-1-yl]pyrimidin-4-yl}-8-[(2R,3S)-3-(methanesulfonylmethyl)-2-methylazetidin-1-yl]-5-(propan-2-yl)isoquinolin-3-amine] | 15.1 to 20 | 30.1 to 50
3 | CC(C)c1ccc(N2CC(CS(=O)(=O)C3CC3)C2)c2cnc(Nc3ccnc(N4CC[C@@H](O)[C@@](C)(F)C4)n3)cc12 [Compound 170, (3S,4R)-1-{4-[(8-{3-[(cyclopropanesulfonyl)methyl]azetidin-1-yl}-5-(propan-2-yl)isoquinolin-3-yl)amino]pyrimidin-2-yl}-3-fluoro-3-methylpiperidin-4-ol] | ≤ 15 | ≤ 10
4 | COC1(CO)CCN(c2nccc(Nc3cc4c(C(C)C)ccc(N5C[C@H](CS(C)(=O)=O)[C@H]5C)c4cn3)n2)CC1 [Compound 175, {1-[4-({8-[(2R,3S)-3-(methanesulfonylmethyl)-2-methylazetidin-1-yl]-5-(propan-2-yl)isoquinolin-3-yl}amino)pyrimidin-2-yl]-4-methoxypiperidin-4-yl}methanol] | ≤ 15 | ≤ 10
5 | CCS(=O)(=O)C[C@H]1CN(c2nnc(C(C)C)c3cc(Nc4ccnc(N5CC[C@@H](OC)[C@@H](F)C5)n4)ncc23)[C@@H]1C [Compound 206, N-{4-[(2R,3S)-3-[(ethanesulfonyl)methyl]-2-methylazetidin-1-yl]-1-(propan-2-yl)pyrido[3,4-d]pyridazin-7-yl}-2-[(3S,4R)-3-fluoro-4-methoxypiperidin-1-yl]pyrimidin-4-amine] | ≤ 15 | ≤ 10
6 | COC1(CCN)CCN(c2nccc(Nc3cc4c(C(C)C)ccc(N5C[C@H](CS(C)(=O)=O)[C@H]5C)c4cn3)n2)CC1 [Compound 221, N-{2-[4-(2-aminoethyl)-4-methoxypiperidin-1-yl]pyrimidin-4-yl}-8-[(2R,3S)-3-(methanesulfonylmethyl)-2-methylazetidin-1-yl]-5-(propan-2-yl)isoquinolin-3-amine] | ≤ 15 | 30.1 to 50
7 | CC(C)c1ncc(N2C[C@H](CS(C)(=O)=O)[C@H]2C)c2cnc(Nc3ccnc(N4CC[C@H](OC5CC5)[C@H](F)C4)n3)cc12 [Compound 224, N-{2-[(3R,4S)-4-cyclopropoxy-3-fluoropiperidin-1-yl]pyrimidin-4-yl}-8-[(2R,3S)-3-(methanesulfonylmethyl)-2-methylazetidin-1-yl]-5-(propan-2-yl)-2,6-naphthyridin-3-amine] | 15.1 to 20 | ≤ 10
8 | CC(C)c1ncc(N2C[C@H](CS(C)(=O)=O)[C@H]2C)c2cnc(Nc3ccnc(N4CC[C@@H](OC5CC5)[C@@H](F)C4)n3)cc12 [Compound 225] | ≤ 15 | ≤ 10

Next, values leading:

Row | IC50 (EGFR (L858R T790M C797S)) [nM] | IC50 [1] [nM] | Compound
9 | ≤ 15 | 10.1 to 20 | CC(C)c1ccc(N2C[C@H](CS(C)(=O)=O)[C@H]2C)c2cnc(Nc3ccnc(N4CCC(OCCN)CC4)n3)cc12 [Compound 168, N-{2-[4-(2-aminoethoxy)piperidin-1-yl]pyrimidin-4-yl}-8-[(2R,3S)-3-(methanesulfonylmethyl)-2-methylazetidin-1-yl]-5-(propan-2-yl)isoquinolin-3-amine]
10 | ≤ 15 | ≤ 10 | CC(C)c1ccc(N2C[C@H](CS(C)(=O)=O)[C@H]2C)c2cnc(Nc3ccnc(N4CCC(OCCO)CC4)n3)cc12 [Compound 171, 2-({1-[4-({8-[(2R,3S)-3-(methanesulfonylmethyl)-2-methylazetidin-1-yl]-5-(propan-2-yl)isoquinolin-3-yl}amino)pyrimidin-2-yl]piperidin-4-yl}oxy)ethan-1-ol]
11 | ≤ 15 | ≤ 10 | CC(C)c1ccc(N2CC(CS(C)(=O)=O)C2)c2cnc(Nc3ccnc(N4CC[C@@H](OCCO)[C@@H](F)C4)n3)cc12 [Compound 205, 2-{[(3S,4R)-3-fluoro-1-[4-({8-[3-(methanesulfonylmethyl)azetidin-1-yl]-5-(propan-2-yl)isoquinolin-3-yl}amino)pyrimidin-2-yl]piperidin-4-yl]oxy}ethan-1-ol]
12 | ≤ 15 | 10.1 to 20 | CCS(=O)(=O)C[C@H]1CN(c2nnc(C(C)C)c3cc(Nc4ccnc(N5CC[C@H](OC)[C@H](F)C5)n4)ncc23)[C@@H]1C [Compound 207, N-{4-[(2R,3S)-3-[(ethanesulfonyl)methyl]-2-methylazetidin-1-yl]-1-(propan-2-yl)pyrido[3,4-d]pyridazin-7-yl}-2-[(3R,4S)-3-fluoro-4-methoxypiperidin-1-yl]pyrimidin-4-amine]
13 | ≤ 15 | ≤ 10 | CC(C)c1ccc(N2C[C@H](CS(C)(=O)=O)[C@H]2C)c2cnc(Nc3ccnc(N4CC[C@H](OCCO)[C@H](F)C4)n3)cc12 [Compound 228, 2-((3R,4S)-3-fluoro-1-(4-(5-isopropyl-8-((2R,3S)-2-methyl-3-(methylsulfonylmethyl)azetidin-1-yl)isoquinolin-3-ylamino)pyrimidin-2-yl)piperidin-4-yloxy)ethanol]
14 | ≤ 15 | ≤ 10 | CC(C)c1ccc(N2C[C@H](CS(C)(=O)=O)[C@H]2C)c2cnc(Nc3ccnc(N4CC[C@@H](OCCO)[C@@H](F)C4)n3)cc12 [Compound 229, 2-((3S,4R)-3-fluoro-1-(4-(5-isopropyl-8-((2R,3S)-2-methyl-3-(methylsulfonylmethyl)azetidin-1-yl)isoquinolin-3-ylamino)pyrimidin-2-yl)piperidin-4-yloxy)ethanol]
15 | ≤ 15 | ≤ 10 | CNCCO[C@@H]1CCN(c2nccc(Nc3cc4c(C(C)C)ccc(N5C[C@H](CS(C)(=O)=O)[C@H]5C)c4cn3)n2)C[C@@H]1F [Compound 240, N-{2-[(3S,4R)-3-fluoro-4-[2-(methylamino)ethoxy]piperidin-1-yl]pyrimidin-4-yl}-8-[(2R,3S)-3-(methanesulfonylmethyl)-2-methylazetidin-1-yl]-5-(propan-2-yl)isoquinolin-3-amine]
16 | ≤ 15 | 10.1 to 20 | CC(C)c1ccc(N2C[C@H](CS(C)(=O)=O)[C@H]2C)c2cnc(Nc3ccnc(N4CC[C@@H](OCCN)[C@@](C)(F)C4)n3)cc12 [Compound 241, N-{2-[(3S,4R)-4-(2-aminoethoxy)-3-fluoro-3-methylpiperidin-1-yl]pyrimidin-4-yl}-8-[(2R,3S)-3-(methanesulfonylmethyl)-2-methylazetidin-1-yl]-5-(propan-2-yl)isoquinolin-3-amine]
17 | ≤ 15 | ≤ 10 | CCS(=O)(=O)C[C@H]1CN(c2ccc(C(C)C)c3cc(Nc4ccnc(N5CC[C@H](OCCO)[C@H](F)C5)n4)ncc23)[C@@H]1C [Compound 243, 2-((3R,4S)-1-(4-(8-((2R,3S)-3-(ethylsulfonylmethyl)-2-methylazetidin-1-yl)-5-isopropylisoquinolin-3-ylamino)pyrimidin-2-yl)-3-fluoropiperidin-4-yloxy)ethanol]
